target: LRRK2 (Homo sapiens, UniProt Q5S007); assay: LRRK2 protein kinase assay ([γ-33P] ATP, peptide substrate), KI values of Table 1; format: biochemical; conditions: LRRK2 affinity values
Description: All LRRK2 protein kinases were of human origin and were sourced from Invitrogen Corporation (Carlsbad, Calif. 92008 USA) unless otherwise indicated. The active mutant used was recombinant human, catalytic domain (amino acids 970-2527) containing a G2019S mutation, GST-tagged, expressed in insect cells (Invitrogen Cat#PV4881). The wild type used was recombinant human, catalytic domain (amino acids 970-2527) GST-tagged, expressed in insect cells (Invitrogen Cat#PV4873). The kinase dead mutant used was recombinant human, catalytic domain (amino acids 970-2527) containing a D1994A mutation, GST-tagged, expressed in insect cells (Invitrogen Cat#PM4041AE). No special measures were taken to activate any of the kinases.
All assays were carried out at room temperature (˜21° C.) and were linear with respect to time and enzyme concentration under the conditions used. Assays were performed for 180 min in a 96 well format. LRRK2 was present at a concentration of approximately 5 nM. The enzyme was diluted and assayed in 50 mM Tris-HCl pH7.5, 0.1 mM EGTA, 1 mM DTT and 10 mM MgCl2. The concentration of magnesium chloride in the assay was 10 mM. The [γ-33P] ATP (0.4 μCi/well) was used at 134 uM for G2019S mutant and at 57 μM for the wild type kinase in order to be at Km. The peptide substrate in the assay was […] at 100 μM.
The assays were initiated with Mg/ATP and stopped by the addition of 25 μl/well 50% orthophosphoric acid. Reactions were harvested onto Whatman P81 Unifilter Plates (Fisher Scientific. Loughborough, LE115RG, UK. Cat# FDU-105-020U) using a Tomtec harvester. (Tomtec Hamden, Conn. 06514. USA) Plates were counted using a Perkin Elmer Top Count NX7. (Perkin Elmer, Shelton Conn. 06484-4794 USA)
IC50 values of inhibitors were determined after carrying out assays at 10 different concentrations of each compound in duplicate.

Sequence of LRRK2 (Q5S007 whole entry G2019S, form open, the tested form may be a part): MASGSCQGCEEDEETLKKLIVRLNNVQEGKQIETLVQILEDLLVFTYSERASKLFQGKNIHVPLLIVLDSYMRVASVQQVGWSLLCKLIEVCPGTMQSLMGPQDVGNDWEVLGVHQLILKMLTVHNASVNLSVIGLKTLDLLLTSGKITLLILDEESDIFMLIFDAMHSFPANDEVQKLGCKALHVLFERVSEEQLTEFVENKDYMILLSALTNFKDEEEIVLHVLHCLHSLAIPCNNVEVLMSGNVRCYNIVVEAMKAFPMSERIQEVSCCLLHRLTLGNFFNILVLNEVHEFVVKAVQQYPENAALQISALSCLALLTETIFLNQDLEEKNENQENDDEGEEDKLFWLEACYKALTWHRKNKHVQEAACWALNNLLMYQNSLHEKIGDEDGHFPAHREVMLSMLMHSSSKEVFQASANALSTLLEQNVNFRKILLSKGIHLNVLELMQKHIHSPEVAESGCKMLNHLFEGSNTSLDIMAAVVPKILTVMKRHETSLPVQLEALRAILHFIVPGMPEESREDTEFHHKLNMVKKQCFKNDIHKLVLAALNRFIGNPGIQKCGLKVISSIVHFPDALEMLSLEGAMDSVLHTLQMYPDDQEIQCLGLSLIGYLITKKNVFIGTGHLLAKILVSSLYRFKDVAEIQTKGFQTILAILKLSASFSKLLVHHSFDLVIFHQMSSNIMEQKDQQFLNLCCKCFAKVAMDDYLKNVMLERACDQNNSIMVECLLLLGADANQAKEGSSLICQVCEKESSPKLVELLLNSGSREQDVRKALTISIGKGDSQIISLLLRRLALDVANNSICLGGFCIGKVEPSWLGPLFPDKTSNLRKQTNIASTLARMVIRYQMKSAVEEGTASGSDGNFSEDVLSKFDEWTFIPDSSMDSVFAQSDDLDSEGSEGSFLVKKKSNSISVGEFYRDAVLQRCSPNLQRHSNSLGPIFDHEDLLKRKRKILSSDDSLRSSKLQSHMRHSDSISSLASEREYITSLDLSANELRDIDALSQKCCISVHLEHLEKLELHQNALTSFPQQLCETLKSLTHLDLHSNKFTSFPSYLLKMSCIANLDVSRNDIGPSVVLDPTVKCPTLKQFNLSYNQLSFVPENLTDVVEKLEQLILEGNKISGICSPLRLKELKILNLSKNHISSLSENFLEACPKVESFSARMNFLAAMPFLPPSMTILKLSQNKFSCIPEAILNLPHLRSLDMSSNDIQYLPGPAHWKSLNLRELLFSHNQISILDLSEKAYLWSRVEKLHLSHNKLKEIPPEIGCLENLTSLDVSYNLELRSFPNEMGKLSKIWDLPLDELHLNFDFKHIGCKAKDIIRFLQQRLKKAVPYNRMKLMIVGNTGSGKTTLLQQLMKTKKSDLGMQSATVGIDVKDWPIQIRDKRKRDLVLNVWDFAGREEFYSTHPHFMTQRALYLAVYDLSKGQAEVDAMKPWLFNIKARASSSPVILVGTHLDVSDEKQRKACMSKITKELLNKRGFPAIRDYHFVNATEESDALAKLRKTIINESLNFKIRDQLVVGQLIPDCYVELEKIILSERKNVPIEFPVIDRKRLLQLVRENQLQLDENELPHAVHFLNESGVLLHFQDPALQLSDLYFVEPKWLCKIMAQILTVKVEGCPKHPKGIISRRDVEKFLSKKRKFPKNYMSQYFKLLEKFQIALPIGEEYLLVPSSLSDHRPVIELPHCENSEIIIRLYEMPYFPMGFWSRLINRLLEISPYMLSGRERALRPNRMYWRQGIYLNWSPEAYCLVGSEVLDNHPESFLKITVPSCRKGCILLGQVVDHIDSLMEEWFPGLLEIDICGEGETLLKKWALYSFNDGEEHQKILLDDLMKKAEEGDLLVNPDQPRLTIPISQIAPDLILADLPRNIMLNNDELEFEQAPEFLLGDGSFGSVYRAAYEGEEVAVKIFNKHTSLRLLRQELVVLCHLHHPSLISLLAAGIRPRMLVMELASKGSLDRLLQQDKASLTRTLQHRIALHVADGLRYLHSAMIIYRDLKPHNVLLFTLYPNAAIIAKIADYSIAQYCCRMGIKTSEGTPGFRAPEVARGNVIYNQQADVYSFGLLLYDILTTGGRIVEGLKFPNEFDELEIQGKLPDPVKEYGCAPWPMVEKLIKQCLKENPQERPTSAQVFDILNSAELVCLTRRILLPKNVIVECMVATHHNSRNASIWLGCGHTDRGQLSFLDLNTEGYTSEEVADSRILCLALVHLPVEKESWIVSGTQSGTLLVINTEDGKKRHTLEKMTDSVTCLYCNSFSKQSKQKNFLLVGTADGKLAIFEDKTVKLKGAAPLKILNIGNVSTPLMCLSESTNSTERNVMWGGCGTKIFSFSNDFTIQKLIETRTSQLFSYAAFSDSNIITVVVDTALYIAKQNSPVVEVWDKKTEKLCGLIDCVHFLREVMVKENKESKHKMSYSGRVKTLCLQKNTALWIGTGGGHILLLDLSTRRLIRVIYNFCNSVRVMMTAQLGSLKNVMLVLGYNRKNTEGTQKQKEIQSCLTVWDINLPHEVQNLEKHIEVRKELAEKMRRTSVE

Ki	Compound
66.3 nM	Cc1cc2[nH]nc(-c3cc(C(F)(F)F)ncn3)c2c(NC2CCOCC2)n1 [Compound 57, 6-methyl-N-(tetrahydro-2H-pyran-4-yl)-3-(6-(trifluoromethyl)pyrimidin-4-yl)-1H-pyrazolo[4,3-c]pyridin-4-amine]
1.4 nM	FC1(F)CN(c2ccnc(-c3n[nH]c4ccnc(NC5CCOCC5)c34)c2)CC(F)(F)O1 [Compound 61, 3-(4-(2,2,6,6-tetrafluoro-morpholino)pyridin-2-yl)-N-(tetrahydro-2H-pyran-4-yl)-1H-pyrazolo[4,3-c]pyridin-4-amine]

Further lines, the compound ahead of its results:

Compound	Ki
CC(C)Nc1nccc2[nH]nc(-c3cc(C(=O)N(C)C)ncn3)c12 [Compound 62, 6-(4-(isopropylamino)-1H-pyrazolo[4,3-c]pyridin-3-yl)-N,N-dimethylpyrimidine-4-carboxamide]	193 nM
CC(C)Nc1nccc2[nH]nc(-c3cc(C4CCCO4)ncn3)c12 (centres unmarked) [Compound 54, N-isopropyl-3-(6-(tetrahydrofuran-2-yl)pyrimidin-4-yl)-1H-pyrazolo[4,3-c]pyridin-4-amine]	28.7 nM
FC1(F)CCC(Nc2nccc3[nH]nc(-c4ccccn4)c23)CC1 [Compound 34, N-(4,4-difluorocyclohexyl)-3-(pyridin-2-yl)-1H-pyrazolo[4,3-c]pyridin-4-amine]	6.4 nM

Reference: patent US20140288043A1, “PYRAZOLOPYRIDINE COMPOUNDS” (Genentech, Inc., priority 2013, published 2014)
